Assay results: patent US20120270954A1, “METHODS FOR MAINTAINING EYE HEALTH AND AMELIORATING OPTHALMIC MALADIES IN CANINES” (priority 2009, published 2012)
Like-named read-outs stand apart in the source and are kept apart here.

How the values were obtained:
[1] = type: in vivo; details: for Antioxidant level in Cortical/Epithelial Layer (C) of dog lens / Antioxidant level in Nuclear Layer (N) of dog lens: lenses of seven dogs
Description: Eye samples were collected from seven (7) dogs. Eye balls were removed within 1 hour of death at necropsy, stored in individual containers at 4° C., and stored on wet ice for dissection within one day. The eyes were dissected to take out lenses. The lenses were separated into two layers: (1) an outer, soft cortical/epithelial layer and (2) an inner, hard nuclear layer. The layers were analyzed for carotenoids, vitamin C, and vitamin E following standard procedures given in Craft N E, Haitema T B, Garnett K M, Fitch K A, Dorey C K. Carotenoid, tocopherol, and retinol concentrations in elderly human brain. J Nutr. Health Aging 2004; 8:156-62.

[2] = previous studies, humans regularly consume β-carotene in their diets; cited from earlier work

Compound | Antioxidant level in Cortical/Epithelial Layer (C) of dog lens [1] | Antioxidant level in Nuclear Layer (N) of dog lens ([1]; nuclear layer) | β-Carotene concentration in lens layer ([1]; Dog 1, BEA, M/n, age 15.50, layer N) | β-Carotene concentration in lens layer ([1]; Dog 2, BEA, M/n, age 13.55, layer C) | β-Carotene concentration in lens layer ([1]; Dog 2, BEA, M/n, age 13.55, layer N) | β-Carotene concentration in lens layer ([1]; Dog 3, LAB, F/s, age 13.41, layer C) | β-Carotene concentration in lens layer ([1]; Dog 3, LAB, F/s, age 13.41, layer N) | β-Carotene concentration in lens layer ([1]; Dog 4, LAB, M/n, age 14.22, layer C) | β-Carotene concentration in lens layer ([1]; Dog 4, LAB, M/n, age 14.22, layer N) | β-Carotene concentration in lens layer ([1]; Dog 5, Man T, F/s, age 12.79, layer C) | β-Carotene concentration in lens layer ([1]; Dog 5, Man T, F/s, age 12.79, layer N) | β-Carotene concentration in lens layer ([1]; Dog 6, SIB HUSKY, M/n, age 6.10, layer C) | β-Carotene concentration in lens layer ([1]; Dog 6, SIB HUSKY, M/n, age 6.10, layer N) | β-Carotene concentration in lens layer ([1]; Dog 7, LAB, F/s, age 9.31, layer C) | β-Carotene concentration in lens layer ([1]; Dog 7, LAB, F/s, age 9.31, layer N) | cortical layer samples that accumulated β-carotene ([1]; dog lens, cortical layer, seven dogs) | nuclear layer samples that accumulated β-carotene ([1]; dog lens, nuclear layer, seven dogs) | detection or accumulation in human lenses [2]
vitamin E | 0.93 µg/g | 0.64 µg/g | – | – | – | – | – | – | – | – | – | – | – | – | – | – | – | –
O=C1O[C@H]([C@@H](O)CO)C(O)=C1O [Vitamin C, vitamin C] | 112.38 µg/g | 23.59 µg/g | – | – | – | – | – | – | – | – | – | – | – | – | – | – | – | –
CC1=C(/C=C/C(C)=C/C=C/C(C)=C/C=C/C=C(C)/C=C/C=C(C)/C=C/C2=C(C)CCCC2(C)C)C(C)(C)CCC1 [β-Carotene, β-carotene] | 0.00174 µg/g | 0.00274 µg/g | 0.79 ng/g | 1.06 ng/g | 0.60 ng/g | 0.73 ng/g | 1.26 ng/g | 0.71 ng/g | 0.79 ng/g | 1.35 ng/g | 1.60 ng/g | 4.26 ng/g | 8.17 ng/g | 2.35 ng/g | 5.99 ng/g | six out of seven cortical layer samples accumulated | all nuclear layer samples accumulated | not detected or accumulated in human lenses
